Test results from patent US20240300980A1, “HETEROCYCLIC COMPOUNDS AS KRAS INHIBITOR, AND PREPARATION THEREFOR AND USE THEREOF IN TREATMENT” (SHANGHAI KECHOW PHARMA, INC., priority 2021, published 2024).
pIC50: −log10 of the molar value.

Test system: AGS cells (KRAS^G12D)
Test: Detection of cell proliferation in vitro by MTT/MTS method (cell activity experiment)
Assay type: cell-based
Settings: AGS cells; MTT/MTS; 3 days of drug treatment; read-out: AGS IC50
Outline: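 KRAS G12D AGS cells seeded at 1000 per well, compound added 24 h later, 0.5% final DMSO. Viability read after 3 days of treatment by MTT (solubilised in DMSO) or MTS, 4 h, absorbance 490 nm. IC50 from dose–response curves versus DMSO control.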

C#Cc1c(F)ccc2cc(O)cc(-c3ccc4c(N5C[C@H]6CC[C@@H](C5)N6)nc(OC[C@]56CCCN5[C@@H](COC(=O)N(C)C)CC6)nc4c3)c12 [Example 153, ((3R,7aR)-7a-(((4-((1R, 5S)-3,8-diazabicyclo [3.2.1]octan-3-yl)-7-(8-ethynyl-7-fluoro-3-hydroxynaphthalen-1-yl)quinazolin-2-yl)oxy)methyl)hexahydro-1H-pyrrolizin-3-yl) methyl dimethylcarbamate] showed a pIC50 of 6.72.

Same assay, conditions: Homo sapiens, AGS, 72 h, AGS cells; MTT/MTS; 3 days of drug treatment; read-out: AGS IC50

Point of comparison: Oc1ccc2ccccc2c1C#Cc1ccc2c(N3C[C@H]4CC[C@@H](C3)N4)nc(OC[C@@]34CCCN3C[C@H](F)C4)nc2c1F [Example 365, 1-((4-((1R,5S)-3,8-diazabicyclo[3.2.1]octan-3-yl)-8-fluoro-2-(((2R,7aS)-2-fluorotetrahydro-1H-pyrrolizin-7a(5H)-yl)methoxy)quinazolin-7-yl)ethynyl)naphthalen-2-ol], pIC50 5.44. Against it:
- C#Cc1c(F)ccc2cccc(-c3ccc4c(N5C[C@H]6CC[C@@H](C5)N6)nc(OC[C@]56CCCN5[C@@H](COC(=O)N(C)C)CC6)nc4c3F)c12 [Example 98, ((3R,7aR)-7a-(((4-((1R,5S)-3,8-diazabicyclo[3.2.1]octan-3-yl)-7-(8-ethynyl-7-fluoronaphthalen-1-yl)-8-fluoroquinazolin-2-yl)oxy)methyl)hexahydro-1H-pyrrolizin-3-yl) methyl dimethylcarbamate] — 1.45 log units higher, 6.89
- CC12CC1CCc1cc(O)cc(-c3ccc4c(N5C[C@H]6CC[C@@H](C5)N6)nc(OC[C@@]56CCCN5C[C@H](F)C6)nc4c3F)c12 (stereo partly drawn) [Example 281, 7-(4-((1R,5S)-3,8-diazabicyclo[3.2.1]octan-3-yl)-8-fluoro-2-(((2R,7aS)-2-fluorotetrahydro-1H-pyrrolizin-7a(5H)-yl)methoxy)quinazolin-7-yl)-7b-methyl-1a, 2,3,7b-tetrahydro-1H-cyclopropa[a]naphthalen-5-ol] — 0.83 log units higher, 6.27
- N#Cc1c(OC[C@@]23CCCN2C[C@H](F)C3)nc2cc(-c3cc(O)cc4ccc(F)c(F)c34)ccc2c1N1C[C@H]2CC[C@@H](C1)N2 [Example 175, 4-((1R,5S)-3,8-diazabicyclo[3.2.1]octan-3-yl)-7-(7,8-difluoro-3-hydroxynaphthalen-1-yl)-2-(((2R,7aS)-2-fluorotetrahydro-1H-pyrrolizin-7a(5H)-yl)methoxy)quinoline-3-carbonitrile] — 0.44 log units higher, 5.88
- CCc1c(F)ccc2cc(O)cc(-c3ccc4c(N5C[C@H]6CC[C@@H](C5)N6)nc(OC[C@@]56CCCN5C[C@H](F)C6)nc4c3)c12 [Example 149, 4-(4-((1R,5S)-3,8-diazabicyclo[3.2.1]octan-3-yl)-2-(((2R, 7aS)-2-fluorotetrahydro-1H-pyrrolizin-7a(5H)-yl)methoxy)quinazolin-7-yl)-5-ethyl-6-fluoronaphthalen-2-ol] — 1.05 log units higher, 6.49
- CCc1c(F)ccc2cc(O)cc(-c3ccc4c(N5C[C@H]6CC[C@@H](C5)N6)nc(OC[C@]56CCCN5[C@@H](COC(=O)N(C)C)CC6)nc4n3)c12 [Example 146, ((3R,7aR)-7a-(((4-((1R, 5S)-3,8-diazabicyclo [3.2.1]octan-3-yl)-7-(8-ethyl-7-fluoro-3-hydroxynaphthalen-1-yl)pyrido[2,3-d]pyrimidin-2-yl)oxy)methyl)hexahydro-1H-pyrrolizin-3-yl)methyl dimethylcarbamate] — not separable, < 5.60
- CCc1nccc2cc(O)cc(-c3ccc4c(N5C[C@H]6CC[C@@H](C5)N6)nc(OC[C@@]56CCCN5C[C@H](F)C6)nc4c3F)c12 [Example 344, 8-(4-((1R,5S)-3,8-diazabicyclo[3.2.1]octan-3-yl)-8-fluoro-2-(((2R,7aS)-2-fluorotetrahydro-1H-pyrrolizin-7a(5H)-yl)methoxy)quinazolin-7-yl)-1-ethylisoquinolin-6-ol] — 2.02 log units higher, 7.46
